From patent publication US12421212B2, “Substituted benzenecarboxamides as IL-17A modulators” (DiCE Alpha, Inc., priority 2019, dated 2025) come the findings set out here.

SMILES strings stand for the structures.

One test addresses T1, IL-17A/A (Homo sapiens, UniProt Q16552).
T1 construct: purchased Genscript Z03228
T1 sequence (Q16552 24-155): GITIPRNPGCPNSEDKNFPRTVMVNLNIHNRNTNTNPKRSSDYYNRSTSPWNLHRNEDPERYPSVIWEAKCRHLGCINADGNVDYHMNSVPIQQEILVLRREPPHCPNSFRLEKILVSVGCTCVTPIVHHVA
The test can be described thus: IL-17A/A HEK-Blue Cell Assay. Format: cell-based. To be noted: HEK-Blue IL-17A reporter cell line, SEAP readout at A630, 20 hours incubation with IL-17A/A; top concentration 10 uM, 1 uM or 0.3 uM.
Consider `CCC(=O)N[C@H](Cc1ccc(NC(=O)[C@@H](Nc2nccn3nccc23)C2CCCCC2)c(F)c1)C(=O)N1CCN(C)CC1` [Compound 540], for which the “IL-17A/A inhibition (pIC50)” value was “X2b (compounds were evaluated up to 1 uM and inhibited activity at 1 uM by less than 20%)”.

Take `CCC(=O)N[C@H](Cc1ccc(NC(=O)[C@@H](NC(=O)c2ccnn2CC)C2CCCCC2)c(F)c1)C(=O)N1CCC(N(C)C)CC1` [Compound 748]: the “IL-17A/A inhibition (pIC50)” value is “X2a (compounds were evaluated up to 1 uM and did not inhibit activity by >80%, however they showed some activity at 1 uM (less than 80% and more than 20%))”.

With `CCC(=O)N[C@H](C(=O)NC1CCOCC1)[C@@H](C)c1ccc(NC(=O)[C@@H](NC(=O)c2ccnn2CC)C2CCCCC2)c(F)c1` [Compound 757], the “IL-17A/A inhibition (pIC50)” value was “X2b (compounds were evaluated up to 1 uM and inhibited activity at 1 uM by less than 20%)”.

As to `CCC(=O)N[C@H](Cc1ccc(NC(=O)[C@@H](NC(=O)c2ccnn2CC)C2CCCCC2)c(F)c1)C(=O)NCCN(C)C` [Compound 749], the “IL-17A/A inhibition (pIC50)” value was “X2a (compounds were evaluated up to 1 uM and did not inhibit activity by >80%, however they showed some activity at 1 uM (less than 80% and more than 20%))”.

`CCC(=O)N[C@H](Cc1ccc(NC(=O)[C@@H](NC(=O)c2ccnn2CC)C2CCCCC2)c(F)c1)C(=O)NCCO` [Compound 752]: the “IL-17A/A inhibition (pIC50)” value is “X2b (compounds were evaluated up to 1 uM and inhibited activity at 1 uM by less than 20%)”.

As to `CCC(=O)N[C@@H](C(=O)N1CCN(C)CC1)[C@@H](C)c1ccc(NC(=O)C(NC(=O)c2nonc2CC)C(C)C2CCC(F)(F)CC2)c(F)c1` (single isomer, unassigned) [Compound 588], the “IL-17A/A inhibition (pIC50)” value is “X3b (compounds were evaluated up to 0.3 uM and inhibited activity at 0.3 uM by less than 20%)”.

For the molecule `CCC(=O)N[C@@H](C(=O)N1CCN(C)CC1)[C@@H](C)c1ccc(NC(=O)C(NC(=O)c2nonc2CC)C(CC)c2ccc(Cl)cc2)c(F)c1` (single isomer, unassigned) [Compound 564], the “IL-17A/A inhibition (pIC50)” value was “X2a (compounds were evaluated up to 1 uM and did not inhibit activity by >80%, however they showed some activity at 1 uM (less than 80% and more than 20%))”.

The same test, now with this note: HEK-Blue IL-17A reporter cell line, SEAP readout at A630, 20 hours incubation with IL-17A/A; top concentration 10 uM, 1 uM or 0.3 uM; read-out: IL-17A/A inhibition (pIC50) (converted).
Turning to `CCC(=O)N[C@H](Cc1ccc(NC(=O)[C@@H](NC(=O)C(F)(F)c2cccc(OC)c2)C2CCCCC2)c(F)c1)C(=O)N1CCN(C)CC1` [Compound 207], the IC50 was 0.1 to 10 µM.

With `CCC(=O)N[C@@H](C(=O)N1CC(C(C)(C)O)C1)[C@@H](C)c1ccc(NC(=O)[C@@H](NC(=O)c2nonc2CC)[C@H]2CC[C@H](C)CC2)c(F)c1` [Compound 446], the IC50 was below 0.01 µM.

Consider `CCC(=O)N[C@@H](C(=O)N1CCN(C)CC1)[C@@H](C)c1ccc(NC(=O)[C@@H](NC(=O)c2nonc2C(C)C)[C@H]2CC[C@H](C)CC2)c(F)c1` [Compound 549], for which the IC50 is below 0.01 µM.

`CCC(=O)N[C@@H](C(=O)N1CCN(CCO)CC1)[C@@H](C)c1ccc(NC(=O)[C@@H](NC(=O)c2ccnn2CC)[C@H]2CC[C@H](C)CC2)c(F)c1` [Compound 423]: the IC50 was 0.01 to 0.1 µM.

Consider `CCC(=O)N[C@H](Cc1ccc(NC(=O)[C@@H](NC(=O)c2ccnn2CC(C)C)C2CCCCC2)c(F)c1)C(=O)N1CCN(C)CC1` [Compound 646], for which the IC50 was 0.1 to 10 µM.

On to `C[C@@H](c1ccc(NC(=O)[C@@H](NC(=O)C(F)(F)c2cccc(C#N)c2)C2CCCCCC2)c(F)c1)[C@@H](O)C(=O)N1CCN(C)CC1` [Compound 383], for which the IC50 is 0.01 to 0.1 µM.

Turning to `CCn1nccc1C(=O)N[C@H](C(=O)Nc1ccc([C@H](C)[C@@H](NC(=O)c2cncn2C)C(=O)N2CCN(C)CC2)cc1F)C1CCCCC1` [Compound 657], the IC50 was 0.1 to 10 µM.

For `CCn1nccc1C(=O)N[C@H](C(=O)Nc1ccc([C@H](C)[C@@H](NC(=O)CC2CC2)C(=O)N2CCN(C)CC2)cc1F)[C@H]1CC[C@H](C)CC1` [Compound 396], the IC50 is 0.01 to 0.1 µM.

Consider `CCC(=O)N[C@@H](C(=O)NC1CCOCC1)[C@@H](C)c1ccc(NC(=O)[C@@H](NC(=O)c2ccnn2CC)C2CCCCC2)c(F)c1` [Compound 360], for which the IC50 was 0.01 to 0.1 µM.

For the molecule `CCC(=O)N[C@H](Cc1ccc(NC(=O)[C@@H](NC(=O)c2conc2CC)C2CCC(F)(F)CC2)c(F)c1)C(=O)N1CCN(C)CC1` [Compound 692], the IC50 was 0.1 to 10 µM.

For the molecule `CCC(=O)N[C@@H](C(=O)N1CCN(Cc2ccccc2)CC1)[C@H](C)c1ccc(NC(=O)[C@@H](NC(=O)c2ccnn2CC)C2CCCCC2)c(F)c1` [Compound 670], the IC50 was 0.1 to 10 µM.

As to `CCC(=O)N[C@H](Cc1ccc(NC(=O)[C@@H](NC(=O)c2cc(Cl)nn2C)C2CCCCC2)c(F)c1)C(=O)N1CCN(C)CC1` [Compound 765], the IC50 is 0.1 to 10 µM.

For `CCC(=O)NC(C(=O)N1CCN(C(C)C)CC1)[C@@H](C)c1ccc(NC(=O)[C@@H](NC(=O)c2ccnn2CC)[C@H]2CC[C@H](C)CC2)c(F)c1` (single isomer, unassigned) [Compound 368], the IC50 was 0.01 to 0.1 µM.

As for `CCC(=O)N[C@@H](C(=O)N1CCN(C)CC1)[C@@H](C)c1ccc(NC(=O)[C@@H](NC(=O)c2ccnn2C(C)C)[C@H]2CC[C@H](C)CC2)c(F)c1` [Compound 253], the IC50 was below 0.01 µM.

As to `CCn1nccc1C(=O)N[C@H](C(=O)Nc1ccc([C@H](C)[C@@H](NC(=O)c2nonc2C)C(=O)N2CCN(C)CC2)cc1F)[C@H]1CC[C@H](C)CC1` [Compound 473], the IC50 was 0.01 to 0.1 µM.

In the case of `CCn1nccc1C(=O)N[C@H](C(=O)Nc1ccc([C@H](C)[C@@H](NC(=O)c2cnns2)C(=O)N2CCOCC2)cc1F)[C@H]1CC[C@H](C)CC1` [Compound 381], the IC50 is 0.01 to 0.1 µM.

Take `CCn1nccc1C(=O)N[C@H](C(=O)Nc1ccc([C@H](C)[C@@H](NC(=O)c2cnns2)C(=O)N2CCN(C)C3(CC3)C2)cc1F)[C@H]1CC[C@H](C)CC1` [Compound 439]: the IC50 was 0.01 to 0.1 µM.

As to `CCC(=O)N[C@@H](C(=O)N1CCN(C)CC1)[C@@H](C)c1ccc(NC(=O)[C@@H](NC(=O)c2nonc2CC)C2CCCCCC2)c(F)c1` [Compound 270], the IC50 is below 0.01 µM.

For the molecule `CCC(=O)N[C@@H](C(=O)N1CCN(C)CC1)[C@@H](C)c1ccc(NC(=O)C(NC(=O)c2ccnn2CC)[C@H](C)c2ccccc2)c(F)c1` (stereo partly shown) [Compound 288], the IC50 was 0.01 to 0.1 µM.

As for `CCC(=O)N[C@@H](C(=O)N1CCN(C)CC1)[C@@H](C)c1ccc(NC(=O)[C@@H](NC(=O)c2ccnn2C2CCCC2)C2CCCCCC2)c(F)c1` [Compound 273], the IC50 was below 0.01 µM.

As to `CC(C)n1nccc1C(=O)N[C@H](C(=O)Nc1ccc([C@H](C)[C@@H](NC(=O)c2ccnn2CC2CC2)C(=O)N2CCN(C)CC2)cc1F)[C@H]1CC[C@H](C)CC1` [Compound 329], the IC50 is below 0.01 µM.

For `CCC(=O)N[C@@H](C(=O)N1CCN(C)CC1)[C@@H](C)c1ccc(NC(=O)C(NC(=O)C(F)(F)c2cccc(C#N)c2)[C@@H](C)c2ccccc2)c(F)c1` (stereo partly shown) [Compound 290], the IC50 is below 0.01 µM.

Consider `CCC(=O)N[C@@H](C(=O)N1CCN(C)CC1)[C@@H](C)c1ccc(NC(=O)C(NC(=O)c2ccnn2C(C)C)C(C)c2ccc(F)cc2)c(F)c1` (stereo partly shown) [Compound 393], for which the IC50 was 0.01 to 0.1 µM.

In the case of `CCC(=O)N[C@@H](C(=O)N1CCC(O)CC1)[C@@H](C)c1ccc(NC(=O)[C@@H](NC(=O)c2cnn(C3CCCC3)c2)[C@H]2CC[C@H](C)CC2)c(F)c1` [Compound 531], the IC50 was 0.01 to 0.1 µM.

With `CCC(=O)N[C@@H](C(=O)N1CCN(C)CC1)[C@@H](C)c1ccc(NC(=O)[C@@H](NC(=O)c2ccnn2CC2CC2)C2CCCCCC2)c(F)c1` [Compound 271], the IC50 is below 0.01 µM.

Take `CCC(=O)N[C@@H](C(=O)N1CCN(C)CC1)[C@@H](C)c1ccc(NC(=O)[C@@H](NC(=O)c2conc2CC)C2CCCCCC2)c(F)c1` [Compound 257]: the IC50 is below 0.01 µM.

For the molecule `CCC(=O)N[C@@H](C(=O)N1CCN(C)CC1)[C@@H](C)c1ccc(NC(=O)[C@@H](NC(=O)C(F)(F)c2cnn(CC)c2)[C@H]2CC[C@H](C)CC2)c(F)c1` [Compound 523], the IC50 was below 0.01 µM.

For `CC(C)n1nccc1C(=O)N[C@H](C(=O)Nc1ccc([C@H](C)[C@@H](NC(=O)NC2CC2)C(=O)N2CCN(C)CC2)cc1F)C1CCCCCC1` [Compound 339], the IC50 is below 0.01 µM.

As for `CCC(=O)N[C@@H](C(=O)N1CCN(C)CC1)[C@@H](C)c1ccc(NC(=O)[C@@H](NC(=O)c2ccnn2C(C)C)C2CCCCC2)c(F)c1` [Compound 256], the IC50 is 0.01 to 0.1 µM.

Regarding `CCC(=O)N[C@@H](C(=O)NCC1(C)CC1)[C@@H](C)c1ccc(NC(=O)[C@@H](NC(=O)c2ccnn2CC)[C@H]2CC[C@H](C)CC2)c(F)c1` [Compound 346], the IC50 is 0.01 to 0.1 µM.

As for `CCC(=O)N[C@H](Cc1ccc(NC(=O)C(NC(=O)c2ccnn2CC)C2CCc3ccccc3C2)c(F)c1)C(=O)N1CCN(C)CC1` (stereo partly shown) [Compound 634], the IC50 was 0.1 to 10 µM.

For the molecule `CCC(=O)N[C@H](Cc1ccc(NC(=O)[C@@H](NC(=O)c2ccnn2CC)C2CCCCC2)c(F)c1)C(=O)N1CCCN(C)CC1` [Compound 760], the IC50 is 0.1 to 10 µM.

With `C[C@@H](c1ccc(NC(=O)[C@@H](NC(=O)C(F)(F)c2cccc(C#N)c2)C2CCCCCC2)c(F)c1)[C@@H](NC(=O)c1cnns1)C(=O)N1CCN(C)CC1` [Compound 391], the IC50 is below 0.01 µM.

In the case of `CCc1nonc1C(=O)N[C@H](C(=O)Nc1ccc([C@H](C)C(NC(=O)C(C)F)C(=O)N2CCN(C)[C@H](C)C2)cc1F)[C@H]1CC[C@H](C)CC1` (single isomer, unassigned) [Compound 599], the IC50 is below 0.01 µM.

On to `CCn1nccc1C(=O)N[C@H](C(=O)Nc1ccc(C[C@@H](NC(=O)c2ccnn2C2CCN(C)CC2)C(=O)N2CCN(C)CC2)cc1F)C1CCCCC1` [Compound 321], for which the IC50 was 0.01 to 0.1 µM.

With `CCC(=O)N[C@@H](C(=O)N1CCC(C)(OC)CC1)[C@@H](C)c1ccc(NC(=O)[C@@H](NC(=O)c2ccnn2CC)[C@H]2CC[C@H](C)CC2)c(F)c1` [Compound 437], the IC50 was below 0.01 µM.
